Source: PubChem BioAssay (NCI)
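All cell lines were grown in 96-well plates and treated with compound for 48 hours. Abbreviation: GI50, concentration required for 50% inhibition of growth. The concentration for full growth arrest is given as TGI.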

Test system: MDA-MB-468 breast
Assay: NCI anticancer screen, dose series, 48 h

Compound	TGI [µM]	GI50 [µM]
CCc1n(Cc2ccc3ccccc3n2)cc[n+]1Cc1ccc2ccccc2n1	0.0994	
COc1cc2c(c(OC)c1OC)-c1ccc(N)c(=O)cc1[C@@H](NC(C)=O)CC2		< 0.01
O=C(Nc1ccccc1)Nc1nc2ccc([N+](=O)[O-])cc2s1	4.45	0.755
CCCc1c(CC)c(=N)c2ccccc2n1C	48.7	3.22
COc1ccc(-c2nc3sc(-c4ccc(Cl)cc4)cn3n2)cc1	> 50	2.08
O=C(/C=C/C12c3ccccc3C(c3ccccc31)C1C(=O)N(c3ccccc3)C(=O)C12)c1ccccc1 (centres undefined)	7.71	1.87
CC(=O)N(O)CCCCCNC(=O)CCC(=O)N(O)CCCCCNC(=O)CCC(=O)N(O)CCCCCN(CCCCCCCCCC[P+](c1ccccc1)(c1ccccc1)c1ccccc1)CCCCCCCCCC[P+](c1ccccc1)(c1ccccc1)c1ccccc1	5.41	1.68
CCCCCCCNc1nc(C(=O)OCC)ncc1-c1ccc(C(F)(F)F)cc1	93.1	23.4
CCC(=O)O[C@H]1CC[C@H]2[C@@H]3CC[C@H]4CC(=O)[C@H](C)C[C@]4(C)[C@H]3CC[C@]12C	> 100	33.9
CCn1c(C(=O)N(C2CC2)C2CC2)cc2c3c(ncn3C)c(Nc3cc(C)n(C)n3)nc21	> 100	> 100
O=C1C(c2c[nH]c3ccccc23)=C(c2c[nH]c3ccccc23)C(=O)N1O	> 25	> 25
O=[N+]([O-])c1ccc(S(=O)Cc2ccccc2)c([N+](=O)[O-])c1 (centres undefined)	3.13	1.7
CC[C@@]1(O)C[C@H](OC2CC(N(C)C)C(OC3CC(O)C(OC4CCC(=O)C(C)O4)C(C)O3)C(C)O2)c2c(cc3c(c2O)C(=O)c2c(O)cccc2C3=O)[C@H]1C(=O)OC (some centres undefined)	0.123	0.017
CCN(CC)CCNc1ccc([N+](=O)[O-])c2sc3ccccc3c(=O)c12	5.07	1.45
CCOC(=O)C1(Br)C(c2ccccc2)NC(=O)NC1(C)Br (centres undefined)	70.5	24
Cc1cc(/C=C\c2ccc3ccccc3[n+]2C)c(O)c2ncccc12	2.23	0.316
CC(C)CNCC(O)COc1ccc(C(C)(C)c2ccc(OCC(O)CNCC(C)C)cc2)cc1 (centres undefined)	4.91	2.18
CC1(C)CC[C@H](Nc2ncc(C(F)(F)F)c(-c3c[nH]c4c(P(C)(C)=O)c(C#N)ccc34)n2)CN1	5.11	1.22
